# Source: patent publication US20100144819A1, “Synergistic Methods for Control of Pests” (FMC A[…]. LTD., priority 2008, published 2010)
# What was measured:
# [1] = test system: German cockroach (Blatella germanica); assay: German cockroach mortality on treated filter paper; type: in vivo, Blattella germanica; details: 24 h
# Text: (§1) The presence of a synergistic effect between the two active ingredients is established with the aid of the Colby equation (see Colby, S. R., “Calculating Synergistic and Antagonistic Responses of Herbicide Combinations”, Weeds 1967, 15, pg 20-22): E=X+Y−(XY/100).
# (§2) Using the method of Colby, the presence of asynergistic interaction between two active ingredients is established by first calculating the expected activity, ‘E’, of the mixture based on activities of the two components applied alone. If ‘E’ is lower than the observed activity, synergy is present. In the equation above, ‘X’ is the percentage control observed when bifenthrin applied alone at rate ‘x’. The ‘Y’ term is percentage control observed when fipronil applied alone at rate ‘y’. The equation calculates ‘E’, the expected activity of the mixture of ‘X’ at rate ‘x’ with ‘Y’ at rate ‘y’ if their effects are strictly additive and no interaction has occurred.
# The compositions of the present invention were tested for German cockroach (Blatella germanica) activity in the following manner.
# Test solutions were made by dissolving technical grade bifenthrin and fipronil in acetone to provide appropriate rates of application of bifenthrin and fipronil alone, as well as combinations of bifenthrin and fipronil. The active ingredient concentrations tested were from 50 parts per million (0.05 mg of active ingredient/mL or 0.05 g/L) to 500 parts per million (0.5 mg of active ingredient/mL or 0.5 g/L), four replicates per rate. In a fume cabinet, one milliliter of a test solution was applied to a 9 cm Whatman® 2 qualitative filter paper using a calibrated pipette. The application started at the center of the filter paper with individual drops being applied in an outward circular motion so that the entire filter paper was uniformly treated. Acetone only (one mL) was applied in the same manner to provide an untreated control (UTC). The treated filter papers were allowed to dry for two hours. The dried, treated or untreated filter paper was placed into a plastic Petri dish and ten late instar, healthy and active German cockroaches (Blattella germanica) were momentarily immobilized using carbon dioxide and then placed onto the filter paper. The lid of each Petri dish was put on to contain the cockroaches. The Petri dishes were maintained at a temperature of 25° C. to 30° C. at ambient relative humidity out of direct sunlight. German cockroach mortality was assessed after 24 hours by counting the number of alive and the number of knocked down/dead cockroaches.
# (§3) In order to compare the pesticidal effectiveness of the individual and combination treatments the LC 50 and LC 90 values (lethal concentration in ppm that would effectively knock down/kill 50% or 90% of the test pests) were calculated. In calculating the LC values for the various mixtures of bifenthrin and fipronil, probit analysis was conducted on the fipronil concentration of the mixture. […] The values calculated from the data of Table 1 are in Table 1A below.
# [2] = test system: American cockroach (Periplaneta americana); assay: American cockroach mortality on treated filter paper; type: in vivo; details: 24 h
# Text: as §1, §2
# The compositions of the present invention were tested for American cockroach (Periplaneta americana) activity in the following manner:
# Test solutions were made by dissolving technical grade bifenthrin and fipronil in acetone to provide appropriate rates of application of bifenthrin and fipronil alone, as well as combinations of bifenthrin and fipronil. The active ingredient concentrations tested were from 10 part per million (0.01 mg of active ingredient/mL or 0.01 g/L) to 1000 parts per million (1.0 mg of active ingredient/mL or 1.0 g/L), four replicates per rate. In a fume cabinet, one milliliter of a test solution was applied to a 9 cm Whatman® 2 qualitative filter paper using a calibrated pipette. The application started at the center of the filter paper with individual drops being applied in an outward circular motion so that the entire filter paper was uniformly treated. Acetone only (one mL) was applied in the same manner to provide an untreated control (UTC). The treated filter papers were allowed to dry for two hours. The dried, treated or untreated filter paper was placed into a plastic cup having a base diameter of 90 mm, in which the upper portion of the walls of the plastic cup were coated with a fluoropolymer resin (PFTE-30) insect barrier (Fluoron® available from BioQuip Products Inc.) to prevent the insects from climbing out of the container. Ten late instar, healthy and active American cockroaches (Periplaneta americana) were momentarily immobilized using carbon dioxide and then placed onto the filter paper. The top of the plastic containers were covered with gauze to contain the cockroaches. The plastic containers were maintained at a temperature of 25° C. to 30° C. at ambient relative humidity out of direct sunlight. American cockroach mortality was assessed after 24 hours by counting the number of alive and the number of knocked down/dead cockroaches.
# as §3, with “the bifenthrin in” for “the fipronil”, “Table 2” for “Table 1”, “Table 2A” for “Table 1A”
# [3] = test system: black house spider (Badumna insignis); assay: Black house spider mortality on treated pine plywood; type: in vivo; details: suspension concentrate diluted in water, 24 h
# Text: as §1, §2
# The compositions of the present invention were tested for black house spider (Badumna insignis) activity in the following manner:
# Formulations of the test compounds were made as follows: • 1).
# The testing was conducted on pine plywood surfaces that had dimensions of 20 cm×20 cm. The above formulations were diluted in water to achieve the desired concentration rate in grams of active ingredient per liter prior to application to the pine plywood. Each treatment was applied using an airbrush sprayer and compressed air as the propellant. The equipment was calibrated prior to use and the treatments were applied to the pine plywood surfaces at a rate of 1 L/10 m^2 (4 mL of final test solution per 20 cm×20 cm pine plywood surface)'. For example, in order to obtain a application rate of […] of active ingredient per 10 m^2, 1.25 mL of the fipronil formulation 1) which contained 100 gram per liter suspension concentrate formulation of fipronil, was diluted in 1 liter of water to make a final test solution. Four mL of the final test solution was sprayed onto the pine plywood surface. The treated pine plywood was allowed to air dry at ambient temperature by storing horizontally away from direct sunlight. Three black house spiders, medium to large in size collected from the field 1 to 2 days prior to testing, were placed separately under untreated portion cups (7 cm diameter by 7 cm deep) on the treated pine plywood surfaces. The untreated portion cups provided an opportunity for the spiders to seek an untreated area. The spiders were assessed after 24 hours exposure by counting the number of alive and the number of knocked down/dead spiders. There were three replications of each treatment.
# [4] = probit analysis of Table 1 data, mixtures as bifenthrin:fipronil
# [5] = probit analysis of Table 2 data, mixtures as bifenthrin:fipronil
smiles,measurement,setting,value
"N#Cc1nn(-c2c(Cl)cc(C(F)(F)F)cc2Cl)c(N)c1[S+]([O-])C(F)(F)F [Fipronil, (5-amino-[2,6-dichloro-4(trifluoromethyl)phenyl]-4-[(1R,S)-(trifluoromethyl)sulfinyl]-1H-pyrazole-3-carbonitrile]",% Observed Control,[1]; 50 ppm (0.05 mg/mL),22.5%
same,Mortality Rep 1 dead/alive,[1]; 50 ppm (0.05 mg/mL),7/3
same,Mortality Rep 2 dead/alive,[1]; 50 ppm (0.05 mg/mL),1/9
same,Mortality Rep 3 dead/alive,[1]; 50 ppm (0.05 mg/mL),0/10
same,Mortality Rep 4 dead/alive,[1]; 50 ppm (0.05 mg/mL),1/9
same,% Observed Control,[1]; 100 ppm (0.1 mg/mL),42.5%
same,Mortality Rep 1 dead/alive,[1]; 100 ppm (0.1 mg/mL),6/4
same,Mortality Rep 2 dead/alive,[1]; 100 ppm (0.1 mg/mL),3/7
same,Mortality Rep 3 dead/alive,[1]; 100 ppm (0.1 mg/mL),4/6
same,Mortality Rep 4 dead/alive,[1]; 100 ppm (0.1 mg/mL),4/6
same,% Observed Control,[1]; 250 ppm (0.25 mg/mL),100%
same,Mortality Rep 1 dead/alive,[1]; 250 ppm (0.25 mg/mL),10/0
same,Mortality Rep 2 dead/alive,[1]; 250 ppm (0.25 mg/mL),10/0
same,Mortality Rep 3 dead/alive,[1]; 250 ppm (0.25 mg/mL),10/0
same,Mortality Rep 4 dead/alive,[1]; 250 ppm (0.25 mg/mL),10/0
same,% Observed Control,[1]; 500 ppm (0.5 mg/mL),100%
same,Mortality Rep 1 dead/alive,[1]; 500 ppm (0.5 mg/mL),10/0
same,Mortality Rep 2 dead/alive,[1]; 500 ppm (0.5 mg/mL),10/0
same,Mortality Rep 3 dead/alive,[1]; 500 ppm (0.5 mg/mL),10/0
same,Mortality Rep 4 dead/alive,[1]; 500 ppm (0.5 mg/mL),10/0
same,LC 50,[1]; [4],102 ppm
same,LC 90,[1]; [4],179 ppm
same,% Observed Control,[2]; 10 ppm (0.01 mg/mL),0%
same,Mortality Rep 1 dead/alive,[2]; 10 ppm (0.01 mg/mL),0/10
same,Mortality Rep 2 dead/alive,[2]; 10 ppm (0.01 mg/mL),0/10
same,Mortality Rep 3 dead/alive,[2]; 10 ppm (0.01 mg/mL),0/10
same,Mortality Rep 4 dead/alive,[2]; 10 ppm (0.01 mg/mL),0/10
same,% Observed Control,[2]; 20 ppm (0.02 mg/mL),0%
same,Mortality Rep 1 dead/alive,[2]; 20 ppm (0.02 mg/mL),0/10
same,Mortality Rep 2 dead/alive,[2]; 20 ppm (0.02 mg/mL),0/10
same,Mortality Rep 3 dead/alive,[2]; 20 ppm (0.02 mg/mL),0/10
same,Mortality Rep 4 dead/alive,[2]; 20 ppm (0.02 mg/mL),0/10
same,% Observed Control,[2]; 25 ppm (0.025 mg/mL),0%
same,Mortality Rep 1 dead/alive,[2]; 25 ppm (0.025 mg/mL),0/10
same,Mortality Rep 2 dead/alive,[2]; 25 ppm (0.025 mg/mL),0/10
same,Mortality Rep 3 dead/alive,[2]; 25 ppm (0.025 mg/mL),0/10
same,Mortality Rep 4 dead/alive,[2]; 25 ppm (0.025 mg/mL),0/10
same,% Observed Control,[2]; 50 ppm (0.05 mg/mL),0%
same,Mortality Rep 1 dead/alive,[2]; 50 ppm (0.05 mg/mL),0/10
same,Mortality Rep 2 dead/alive,[2]; 50 ppm (0.05 mg/mL),0/10
same,Mortality Rep 3 dead/alive,[2]; 50 ppm (0.05 mg/mL),0/10
same,Mortality Rep 4 dead/alive,[2]; 50 ppm (0.05 mg/mL),0/10
same,% Observed Control,[2]; 100 ppm (0.1 mg/mL),2.5%
same,Mortality Rep 1 dead/alive,[2]; 100 ppm (0.1 mg/mL),0/10
same,Mortality Rep 2 dead/alive,[2]; 100 ppm (0.1 mg/mL),0/10
same,Mortality Rep 3 dead/alive,[2]; 100 ppm (0.1 mg/mL),0/10
same,Mortality Rep 4 dead/alive,[2]; 100 ppm (0.1 mg/mL),1/9
same,% Observed Control,[2]; 125 ppm (0.125 mg/mL),2.5%
same,Mortality Rep 1 dead/alive,[2]; 125 ppm (0.125 mg/mL),0/10
same,Mortality Rep 2 dead/alive,[2]; 125 ppm (0.125 mg/mL),0/10
same,Mortality Rep 3 dead/alive,[2]; 125 ppm (0.125 mg/mL),0/10
same,Mortality Rep 4 dead/alive,[2]; 125 ppm (0.125 mg/mL),1/9
same,% Observed Control,[2]; 200 ppm (0.2 mg/mL),2.5%
same,Mortality Rep 1 dead/alive,[2]; 200 ppm (0.2 mg/mL),0/10
same,Mortality Rep 2 dead/alive,[2]; 200 ppm (0.2 mg/mL),0/10
same,Mortality Rep 3 dead/alive,[2]; 200 ppm (0.2 mg/mL),1/9
same,Mortality Rep 4 dead/alive,[2]; 200 ppm (0.2 mg/mL),0/10
same,% Observed Control,[2]; 250 ppm (0.25 mg/mL),45%
same,Mortality Rep 1 dead/alive,[2]; 250 ppm (0.25 mg/mL),0/10
same,Mortality Rep 2 dead/alive,[2]; 250 ppm (0.25 mg/mL),8/2
same,Mortality Rep 3 dead/alive,[2]; 250 ppm (0.25 mg/mL),7/3
same,Mortality Rep 4 dead/alive,[2]; 250 ppm (0.25 mg/mL),3/7
same,% Observed Control,[2]; 500 ppm (0.5 mg/mL),45%
same,Mortality Rep 1 dead/alive,[2]; 500 ppm (0.5 mg/mL),1/9
same,Mortality Rep 2 dead/alive,[2]; 500 ppm (0.5 mg/mL),8/2
same,Mortality Rep 3 dead/alive,[2]; 500 ppm (0.5 mg/mL),5/5
same,Mortality Rep 4 dead/alive,[2]; 500 ppm (0.5 mg/mL),4/6
same,LC 50,[2]; [5],1013 ppm
same,LC 90,[2]; [5],1742 ppm
same,Observed % Control,[3]; 0.125 g ai/L at 1 L/10 m^2,0.0%
same,Observed % Control,[3]; 0.25 g ai/L at 1 L/10 m^2,0.0%
same,Observed % Control,[3]; 0.5 g ai/L at 1 L/10 m^2,0.0%
